# Results: publication PMC10587871 (Bioconjugate Chemistry, 2023)
# Where a SMILES comes first, the peptide text is derived from it. The star is where a group is joined. 5FAM = O=C1OC2(c3ccc(O)cc3Oc3cc(O)ccc32)c2ccc(C(=O)*)cc21
# Test system: MM6 cell line
# Details: 5(6)-FAM-labeled peptides 10 μM, MM6 cells, 2 h, flow cytometry FITC channel, trypan blue quenching
row,SMILES,Internalization (cellular uptake) profile
1,CC[C@H](C)[C@H](NC(=O)[C@H](CCCCN)NC(=O)[C@H](CCC(=O)O)NC(=O)[C@H](Cc1ccc(O)cc1)NC(=O)[C@@H]1CCCN1C(=O)[C@H](CC(=O)O)NC(=O)c1ccc2c(c1)C(=O)OC21c2ccc(O)cc2Oc2cc(O)ccc21)C(=O)NCC(=O)N[C@@H](C)C(=O)N[C@@H](CCC(=O)O)C(=O)N[C@@H](CC(C)C)C(=O)N[C@H](C(=O)N[C@@H](CCCCN)C(N)=O)C(C)C [Grol2 (63–78)],highest cell internalization among MHC II binding epitopes
2,C[C@H](NC(=O)[C@H](C)NC(=O)[C@H](CCCCN)NC(=O)[C@H](CCCCN)NC(=O)[C@H](C)NC(=O)[C@@H]1CCCN1C(=O)[C@H](C)NC(=O)[C@H](CCCCN)NC(=O)c1ccc2c(c1)C(=O)OC21c2ccc(O)cc2Oc2cc(O)ccc21)C(=O)N[C@@H](C)C(=O)N[C@@H](CCCCN)C(N)=O [HBHA (185–194)] (5FAM-KAPAKKAAAK-NH2),significant cellular uptake
3,CC[C@H](C)[C@H](NC(=O)[C@H](C)NC(=O)[C@H](CCC(N)=O)NC(=O)[C@H](Cc1c[nH]c2ccccc12)NC(=O)[C@H](CC(C)C)NC(=O)[C@H](CCCCN)NC(=O)[C@H](CCCCN)NC(=O)[C@@H](NC(=O)[C@H](Cc1ccc(O)cc1)NC(=O)[C@H](C)NC(=O)c1ccc2c(c1)C(=O)OC21c2ccc(O)cc2Oc2cc(O)ccc21)[C@@H](C)O)C(=O)N[C@@H](CCCNC(=N)N)C(=O)N[C@@H](C)C(=O)N[C@@H](CCC(N)=O)C(=O)N[C@@H](CC(=O)O)C(=O)N[C@H](C(N)=O)C(C)C [RpfA (377–391)] (5FAM-AYTKKLWQAIRAQDV-NH2),weak internalization profile
4,CC(C)[C@H](NC(=O)[C@H](C)NC(=O)[C@@H](NC(=O)CNC(=O)[C@H](C)NC(=O)c1ccc2c(c1)C(=O)OC21c2ccc(O)cc2Oc2cc(O)ccc21)[C@@H](C)O)C(=O)N[C@@H](CCC(N)=O)C(=O)N[C@@H](CC(=O)O)C(=O)N[C@@H](CO)C(=O)N[C@@H](CCCNC(=N)N)C(=O)N[C@@H](CO)C(=O)N[C@@H](Cc1c[nH]cn1)C(=O)N[C@H](C(=O)N[C@@H](Cc1ccc(O)cc1)C(=O)N[C@@H](C)C(=O)N[C@@H](Cc1c[nH]cn1)C(N)=O)C(C)C [Rv1733c (63–77)] (5FAM-AGTAVQDSRSHVYAH-NH2),weak internalization profile
